This test has as its system nude mice, LX-1 lung xenograft intrarenal, tumor weight T/C. The experiment in a line: NCI In Vivo Anticancer Drug Screen. Data for tumor model Human Lung LX-1 Xenograft (intrarenal inoculation) in NU/NU Swiss (nude) mice. The conditions noted are these: endpoint: mean tumor weight change, higher = larger tumour. Summed up: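 Compound-treated mice carrying transplanted tumors were compared with vehicle-treated controls. Tumor size was the measured end point, and the value is the treated-group measurement divided by the control-group measurement (T/C).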

[1] abbreviates: dose: 300.0 mg/kg/injection, schedule: Q04DX003 (sc), vehicle: water.
[2] abbreviates: dose: 600.0 mg/kg/injection, schedule: Q04DX003 (sc), vehicle: water.
Setting [3] is: dose: 1200.0 mg/kg/injection, schedule: Q04DX003 (sc), vehicle: water.
Setting [4] is: dose: 2400.0 mg/kg/injection, schedule: Q04DX003 (sc), vehicle: water.
The mark [5] stands for this setting: dose: 150.0 mg/kg/injection, schedule: Q04DX003 (sc), vehicle: saline with Tween-80.
[6] abbreviates: dose: 300.0 mg/kg/injection, schedule: Q04DX003 (sc), vehicle: saline with Tween-80.
The mark [7] stands for this setting: dose: 600.0 mg/kg/injection, schedule: Q04DX003 (sc), vehicle: saline with Tween-80.
[8] abbreviates: dose: 1200.0 mg/kg/injection, schedule: Q04DX003 (sc), vehicle: saline with Tween-80.
Setting [9] is: dose: 150.0 mg/kg/injection, schedule: Q04DX003 (sc), vehicle: saline.
The mark [10] stands for this setting: dose: 300.0 mg/kg/injection, schedule: Q04DX003 (sc), vehicle: Klucel (hydroxypropylcellulose) (HPC).
Setting [11] is: dose: 150.0 mg/kg/injection, schedule: Q04DX003 (sc), vehicle: Klucel (hydroxypropylcellulose) (HPC).

Values joined by “and” are separate entries in the source; they are usually repeats but may differ in a detail not shown here. Identical values can stand only once. Inconclusive results are not listed.

In the case of `NC(=O)Oc1cccc(OC(N)=O)c1`, the T/C under setting [1] was 105 % of control, the T/C under setting [2] was 89 % of control, the T/C under setting [3] was 67 % of control and the T/C under setting [4] is 54 % of control.

As to `CC(=O)ON(C(C)=O)c1ccc(C(N)=O)cc1`, the T/C was 110 % of control under setting [5], 114 % of control under setting [6], 100 % of control under setting [7] and 97 % of control under setting [8].

Regarding `CCCCCCCCCCCC(=O)NC1CC(O[C@H]2C[C@](O)(C(=O)CO)Cc3c(O)c4c(c(O)c32)C(=O)c2c(OC)cccc2C4=O)OC(C)C1O` (stereo partly drawn), the T/C is 5 % of control under setting [1], 76 % of control under setting [2], 55 % of control under setting [3] and 118 % of control under setting [4].

Regarding `NS(=O)(=O)OCCCCCCCOS(N)(=O)=O`, the T/C by setting is: (dose: 150.0 mg/kg/injection, schedule: Q04DX003 (ip), vehicle: saline with Tween-80) 109 % of control; (dose: 300.0 mg/kg/injection, schedule: Q04DX003 (ip), vehicle: saline with Tween-80) 123 % of control.

Turning to `CCCCCCCC(=O)N/N=C(\CO)[C@]1(O)Cc2c(O)c3c(c(O)c2[C@@H](OC2CC(N)C(O)C(C)O2)C1)C(=O)c1c(OC)cccc1C3=O` (stereo partly drawn), the T/C runs as follows: (dose: 12.5 mg/kg/injection, schedule: Q01DX010 (sc), vehicle: water) 40 % of control; (dose: 25.0 mg/kg/injection, schedule: Q01DX010 (sc), vehicle: water) 63 % of control; (dose: 50.0 mg/kg/injection, schedule: Q01DX010 (sc), vehicle: water) 24 % of control.

On to `[N-]=[N+]=C1N=CN=C1c1ncn[nH]1`, for which the T/C runs as follows: (dose: 12.5 mg/kg/injection, schedule: Q01DX010 (sc), vehicle: Klucel (hydroxypropylcellulose) (HPC)) 153 % of control; (dose: 50.0 mg/kg/injection, schedule: Q01DX010 (sc), vehicle: Klucel (hydroxypropylcellulose) (HPC)) 55 % of control.

Take `COc1cccc2c1C(=O)c1c(O)c3c(c(O)c1C2=O)C[C@@](O)(C(=O)CO)C[C@@H]3OC1CC(N)C(O)C(C)O1` (stereo partly drawn): the T/C was 45 % of control and 53 % of control (dose: 4.0 mg/kg/injection, schedule: Q04DX003 (sc), vehicle: water); 72 % of control (dose: 4.5 mg/kg/injection, schedule: Q04DX003 (sc), vehicle: saline); 44 % of control (dose: 9.0 mg/kg/injection, schedule: Q04DX003 (sc), vehicle: saline).

Regarding `Nc1ccc(Cl)cc1N`, the T/C (dose: 450.0 mg/kg/injection, schedule: Q04DX003 (sc), vehicle: saline with Tween-80) was 115 % of control and the T/C (dose: 900.0 mg/kg/injection, schedule: Q04DX003 (sc), vehicle: saline with Tween-80) is 92 % of control.

For the compound `COc1cc2c(cc1O)N=C[C@@H]1CCC(O)N1C2=O` (mixture of isomers), the T/C (dose: 4.0 mg/kg/injection, schedule: Q01DX010 (sc), vehicle: saline) was 213 % of control.

For `O=C1c2ccccc2C(=O)c2c3c(cc(NCCNCCO)c21)N(CCO)CCN3`, the T/C was 122 % of control (dose: 200.0 mg/kg/injection, schedule: Q04DX003 (sc), vehicle: DMSO); 86 % of control (dose: 400.0 mg/kg/injection, schedule: Q04DX003 (sc), vehicle: DMSO); 83 % of control (dose: 800.0 mg/kg/injection, schedule: Q04DX003 (sc), vehicle: DMSO).

`c1cnc2ncncc2n1`: the T/C was 150 % of control (dose: 50.0 mg/kg/injection, schedule: Q04DX003 (sc), vehicle: saline with Tween-80) and 81 % of control (dose: 100.0 mg/kg/injection, schedule: Q04DX003 (sc), vehicle: saline with Tween-80).

In the case of `CN1C(=O)CC2(CCN(CCCC(=O)c3ccc(F)cc3)CC2)C1=O`, the T/C by setting is: (dose: 18.75 mg/kg/injection, schedule: Q04DX003 (sc), vehicle: suspension in saline) 33 % of control; (dose: 75.0 mg/kg/injection, schedule: Q04DX003 (sc), vehicle: suspension in saline) 85 % of control; (dose: 150.0 mg/kg/injection, schedule: Q04DX003 (sc), vehicle: suspension in saline) 77 % of control.

Regarding `Cc1c2cc[n+](CCN3CCCCC3)cc2c(C)c2c1[nH]c1ccc(O)cc12`, the T/C by setting is: (dose: 50.0 mg/kg/injection, schedule: Q04DX003 (sc), vehicle: suspension in saline) 83 % of control; (dose: 100.0 mg/kg/injection, schedule: Q04DX003 (sc), vehicle: suspension in saline) 68 % of control.

Take `CC1=NN(c2cccc(S(=O)(=O)O)c2)C(=O)C1N=Nc1cc(Cl)cc(S(=O)(=O)O)c1O.CC1=NN(c2cccc(S(=O)(=O)O)c2)C(=O)C1N=Nc1cc(Cl)cc(S(=O)(=O)O)c1O.[Cr]` (stereo not drawn): the T/C was 171 % of control under setting [9]; 152 % of control (dose: 300.0 mg/kg/injection, schedule: Q04DX003 (sc), vehicle: saline); 110 % of control (dose: 600.0 mg/kg/injection, schedule: Q04DX003 (sc), vehicle: saline).

In the case of `CCc1ccccc1N1CCN(C(=O)c2cc(OC)c(OC)c(OC)c2)CC1`, the T/C under setting [10] is 62 % of control; the T/C (dose: 600.0 mg/kg/injection, schedule: Q04DX003 (sc), vehicle: Klucel (hydroxypropylcellulose) (HPC)) was 34 % of control; the T/C (dose: 1200.0 mg/kg/injection, schedule: Q04DX003 (sc), vehicle: Klucel (hydroxypropylcellulose) (HPC)) was 33 % of control; the T/C (dose: 2400.0 mg/kg/injection, schedule: Q04DX003 (sc), vehicle: Klucel (hydroxypropylcellulose) (HPC)) was 30 % of control.

In the case of `O=C1OC(C(O)CO)C(O)=C1O` (stereo not drawn), the T/C was 205 % of control (dose: 400.0 mg/kg/injection, schedule: Q01DX010 (sc), vehicle: saline); 110 % of control (dose: 800.0 mg/kg/injection, schedule: Q01DX010 (sc), vehicle: saline); 153 % of control (dose: 1600.0 mg/kg/injection, schedule: Q01DX010 (sc), vehicle: saline).

Take `N[C@@H](Cc1ccc(N(CCCl)CCCl)cc1)C(=O)O`: the T/C (dose: 1.0 mg/kg/injection, schedule: Q01DX010 (sc), vehicle: saline) was 107 % of control.

Turning to `C[C@H](CCC[C@H](C)OS(=O)(=O)c1ccccc1)OS(=O)(=O)c1ccccc1`, the T/C is, setting by setting: under setting [5], 87 % of control; under setting [6], 45 % of control.

For `N/C(=N\OC(=O)Nc1ccc(CSc2ccc(Cl)cc2)o1)c1ccccn1`, the T/C is 69 % of control (dose: 75.0 mg/kg/injection, schedule: Q04DX003 (sc), vehicle: Klucel (hydroxypropylcellulose) (HPC)); 66 % of control under setting [11]; 180 % of control under setting [10].

Take `CNC(=O)OCc1c(COC(=O)NC)c(-c2ccc(Cl)c(Cl)c2)n2c1Cc1ccccc1C2`: the T/C is 97 % of control (dose: 150.0 mg/kg/injection, schedule: Q04DX003 (sc), vehicle: distilled water + Tween-80); 71 % of control (dose: 300.0 mg/kg/injection, schedule: Q04DX003 (sc), vehicle: distilled water + Tween-80); 58 % of control (dose: 600.0 mg/kg/injection, schedule: Q04DX003 (sc), vehicle: distilled water + Tween-80); 54 % of control (dose: 1200.0 mg/kg/injection, schedule: Q04DX003 (sc), vehicle: distilled water + Tween-80).

In the case of `Nc1nc(N)c2cc(S(=O)(=O)c3ccccc3)ccc2n1`, the T/C by setting is: under setting [5], 116 % of control; under setting [6], 77 % of control; under setting [7], 87 % of control; under setting [8], 95 % of control.

With `O=P(O)(NCCCl)NCCCl`, under setting [9], the T/C is 33 % of control.

As to `Nc1cc(Cl)c2[nH]cnc2n1`, the T/C (dose: 200.0 mg/kg/injection, schedule: Q04DX003 (sc), vehicle: water) is 121 % of control and the T/C (dose: 400.0 mg/kg/injection, schedule: Q04DX003 (sc), vehicle: water) is 94 % of control.

With `NC(=O)c1ncn(C2OC(CO)C(O)C2O)c1O` (stereo not drawn), the T/C under setting [11] is 99 % of control.

As for `O=C1C2CC=CCC2C(=O)N1SC(Cl)(Cl)Cl` (stereo not drawn), the T/C is 102 % of control (dose: 6.25 mg/kg/injection, schedule: Q01DX010 (sc), vehicle: saline with Tween-80); 56 % of control (dose: 12.5 mg/kg/injection, schedule: Q01DX010 (sc), vehicle: saline with Tween-80); 64 % of control and 86 % of control (dose: 50.0 mg/kg/injection, schedule: Q01DX010 (sc), vehicle: saline with Tween-80); 76 % of control (dose: 100.0 mg/kg/injection, schedule: Q01DX010 (sc), vehicle: saline with Tween-80); 97 % of control (dose: 200.0 mg/kg/injection, schedule: Q01DX010 (sc), vehicle: saline with Tween-80).

Values taken from PubChem BioAssay AID264 (DTP/NCI, 2004).
